According to patent US20180162862A1 (President and Fellows of Harvard College, priority 2015, published 2018):
Converted amounts (≈) assume the structure as drawn. Where two headings read alike, the source gives them in different places.

Experiments:
E. faecalis PBP2a = assay: In vitro inhibition of polymerization of 14C-lipid II by E. faecalis PBP2a; format: biochemical; conditions: 50 nM PBP2a, 25 min at room temperature
Method: (ii) In Vitro Inhibition of E. faecalis PBP2a
Solutions of the E. faecalis PBP2a (50 nM) in 50 mM HEPES (pH=7.5), 10 mM CaCl2, and 1000 U/min PenG (8 μL) were incubated with DMSO solutions containing the inhibitor of interest in different concentrations (1 μL) for 20 min. Then ^14C-labelled lipid II (1 μL, 40 μM, ^14C/^12C 1/3) was added and the polymerization reaction was allowed to proceed for 25 min at room temperature.

S. aureus RN4220 [1] = assay: Growth (CFU) of S. aureus RN4220 in the presence of compound; format: cell-based; conditions: S. aureus RN4220, 1-6 h
S. aureus SgtB [2] = biological target: T1, S. aureus SgtB (Staphylococcus aureus, UniProt Q99T05); assay: Michaelis-Menten kinetics of lipid II polymerization by S. aureus SgtB in the presence of 1882L04; format: biochemical; design: made in house
Method: (ii) Determination of KM and vmax for Polymerization of Lipid II by S. aureus SgtB in the Presence of 1882L04
The polymerization reaction was initiated by addition of radioactively labeled lipid II (1 μL, 100 μM, ^14C/^12C=1/3; for a final concentration of 10 μM=KM). […] This ratio was multiplied with the concentration of lipid II used to obtain the amount of lipid II in PG in μM. This value was devided by 1200 s to obtain the reaction rate v in μM/s, which was plotted vs. concentration of lipid II.

S. aureus SgtB [3] = biological target: T1, S. aureus SgtB; assay: Dose-dependent displacement of probe CMG121 from S. aureus SgtB by fluorescence polarization; format: binding; design: made in house
Method: I. Dose-Dependent Displacement of CMG121 from S. aureus SgtB by Fluorescence Polarization
A black 384 well plate (Corning NBS Low Volume No. 3820) was filled (10 μL per well) with an equilibrated solution containing 10 mM TRIS (pH=8.0), 100 mM NaCl, 75 nM CMG121, and 1.0-1.5 μM S. aureus SgtB (depending on protein batch). Due to presence of 8 mM CHAPS detergent in the buffer of the S. aureus SgtB stock, the final assay solution contains 100-160 μM CHAPS. Using an HP D300 Digital Dispenser, for each compound a 1/1 dilution series (12 wells) of the primary hit compound in DMSO (normalized to 1 μL with DMSO) was prepared and added to the aforementioned assay solution. The plate was incubated at 4° C. for 30 min and read with a Perkin Elmer EnVision microplate reader (FP-read out, excitation: 480 nm; emission: 535 nm).
FIGS. 10A-E show values of reduction of fluorescence polarization for exemplified compounds. […] In the primary assay, FP was read after 30 min at 4° C., compound concentration was ca. 100 μM, and 90% reduction in FP was threshold for scoring hits (Gampe et al., J. Am. Chem. Soc. 2013, 135 (10), 3776-3779; U.S. Provisional Patent Application, U.S. Ser. No. 61/621,229, filed on Apr. 6, 2012; International Application No. PCT/US2013/030800 filed on Mar. 13, 2013).
The values were determined in two independent experiments. IC50=10 μM; Hill slope: −0.92.

S. aureus SgtB [4] = biological target: T1, S. aureus SgtB; conditions: read-out: IC50, in vitro inhibition of S. aureus SgtB; 50 nM SgtB, 14C-lipid II, 25 min at room temperature, two independent experiments
Method: In Vitro Inhibition of Polymerization of Lipid II by PGTs
(i) In Vitro Inhibition of S. aureus SgtB:
Then ^14C-labelled lipid II (1 μL, 40 μM, ^14C/^12C 1/3) was added and the polymerization reaction was allowed to proceed for 25 min at room temperature. The reaction was quenched with 10 μL of a solution of moenomycin (1 μM) in 10% triton-X reduced and the remaining lipid II was separated from peptidoglycan (PG) using paper strip chromatography (isobutyric acid/1M NH4OH 5/3). Using a scintillation counter the ratio of radioactivity in PG to total radioactivity was determined and plotted vs. inhibitor concentration. IC50 values were determined using the curve fitting program GraphPad Prism 5.0 (GraphPad Software, Inc.; La Jolla, Calif., USA).

MSSA Newman = assay: MIC test in TSB medium with MTT staining, MSSA Newman; format: cell-based, Staphylococcus aureus; conditions: TSB, 37° C., MTT staining after 22 h
Method: MIC Test (Methicillin Susceptible Staphylococcus aureus (MSSA Newman))
Overnight cultures of MSSA Newman were grown up in TSB medium at 37° C. The cultures obtained were normalized with TSB to OD600=0.6 and diluted 100-fold. 1.5 μL of a dilution series of Example Compounds in DMSO (100×, in duplicate), and the diluted bacterial culture (150 μL) was added to wells of a sterile, clear 96 well plate and incubated at 37° C.

S. aureus RN4220 [5] = conditions: S. aureus RN4220 grown with 65 ug/mL for 22 h, repeated
Method: A liquid culture of wild-type S. aureus RN4220 was grown up in the presence of 1882L04 (65 ug/mL) for 22 h. This culture was normalized to OD600=0.6, diluted 100×, and grown up in the presence of 1882L04 (65 ug/mL) and DMSO. The cultures obtained after 22 h were treated as mentioned before and grown up again.

MSSA NE1 = assay: MIC test in TSB medium with MTT staining, MSSA NE1; format: cell-based, Staphylococcus aureus
Method: MIC Test (Methicillin Susceptible Staphylococcus aureus (MSSA Newman) and MSSA NE1)
Overnight cultures of MSSA Newman and MSSA NE1 were grown up in TSB medium at 37° C. The cultures obtained were normalized with TSB to O600=0.6 and diluted 100-fold. A sterile, clear 96 well plate was charged with 1.5 μL of a dilution series compound 1882L04 in DMSO (100×, in duplicate), and the diluted bacterial culture was added (150 μL). Moenomycin at a final concentration of 2.3 μM was used as positive control.

S. aureus NEI = assay: TEM imaging of S. aureus NE1 treated with compound; format: cell-based
Description: FIGS. 7A and 7B show TEM imaging of S. aureus NEI treated with compound 1882L04.

T1 sequence (Q99T05 68-269): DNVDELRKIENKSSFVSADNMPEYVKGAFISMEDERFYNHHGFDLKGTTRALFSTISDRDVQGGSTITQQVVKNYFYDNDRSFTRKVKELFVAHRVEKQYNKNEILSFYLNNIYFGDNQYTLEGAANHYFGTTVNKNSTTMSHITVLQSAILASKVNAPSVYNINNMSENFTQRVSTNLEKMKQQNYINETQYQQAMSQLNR

SMILES: Cc1cccc(OCCCSc2nc(-c3ccc(C(C)(C)C)cc3)nc3cc(=O)[nH]n23)c1C [1882L04]
- IC50 (E. faecalis PBP2a): 337 µM
- Type of antibacterial activity (number of CFUs) (S. aureus RN4220 [1]): bacteriostatic activity
- Km (S. aureus SgtB [2]; c(1882L04)=50 μM): 18.2 µM
- vmax for polymerization of lipid II by SgtB (S. aureus SgtB [2]; c(1882L04)=50 μM): 0.015 µM/s
- Km (S. aureus SgtB [2]; c(1882L04)=100 μM): 20.9 µM
- vmax for polymerization of lipid II by SgtB (S. aureus SgtB [2]; c(1882L04)=100 μM): 0.012 µM/s
- IC50 (S. aureus SgtB [3]; displacement of 75 nM CMG121 from S. aureus SgtB, 30 min at 4° C., read-out: IC50 from FP Assay): 10 µM
- Hill slope (S. aureus SgtB [3]; displacement of CMG121 from S. aureus SgtB, two independent experiments): −0.92
- IC50 (S. aureus SgtB [4]): 97 µM
- MIC MSSA Newman (MSSA Newman): 125 µg/mL (≈ 270 µM)
- Development of resistance (S. aureus RN4220 [5]): became resistant
- Sensitization of MSSA NE1 to compound (MIC data) (MSSA NE1): sensitized
- MIC MSSA NE1 (MSSA NE1; TSB, 37° C., MTT staining after 22 h): 8 µg/mL (≈ 17.3 µM)
- Cell morphology by TEM (S. aureus NEI): growth defects
